Measured values reported in the NIST ThermoML archive (doi:10.1016/j.tca.2013.08.002).
Numbers after ± are expanded uncertainties.

Key:
[1] = mn = molality of the nth substance listed, in mol/kg; conditions: 101 kPa, Liquid; for speed of sound: Frequency=1.999 MHz, Sing-around technique in a fixed-path interferometer; for mass density: Vibrating tube method
[2] = 101 kPa, Liquid, Frequency=1.999 MHz, Sing-around technique in a fixed-path interferometer

Compound [Cl-].[K+] [potassium chloride] + O has a speed of sound ([1]; 288.15 K, m1 = 0.3) of 1482.9 ± 10 m/s, a mass density ([1]; 288.15 K, m1 = 0.3) of 1019.9 ± 2 kg/m3 and a speed of sound ([1]; 293.15 K, m1 = 0.3) of 1500.8 ± 10 m/s. It also gave a mass density ([1]; 293.15 K, m1 = 0.3) of 1018.1 ± 2 kg/m3, a speed of sound ([1]; 298.15 K, m1 = 0.3) of 1518.4 ± 10 m/s and a mass density ([1]; 298.15 K, m1 = 0.3) of 1016.9 ± 2 kg/m3. It also gave a speed of sound ([1]; 303.15 K, m1 = 0.3) of 1537.8 ± 10 m/s, a mass density ([1]; 303.15 K, m1 = 0.3) of 1013.5 ± 2 kg/m3 and a speed of sound ([1]; 308.15 K, m1 = 0.3) of 1548.6 ± 10 m/s. It also gave a mass density ([1]; 308.15 K, m1 = 0.3) of 1008.5 ± 2 kg/m3, a speed of sound ([1]; 313.15 K, m1 = 0.3) of 1558.8 ± 10 m/s and a mass density ([1]; 313.15 K, m1 = 0.3) of 1006.1 ± 2 kg/m3. For the same compound, the speed of sound ([1]; 318.15 K, m1 = 0.3) was 1568 ± 10 m/s and the mass density ([1]; 318.15 K, m1 = 0.3) was 1003.4 ± 2 kg/m3.
For [Cl-].[Cl-].[Mg+2] [magnesium chloride] + O, the speed of sound ([1]; 288.15 K, m1 = 0.3) was 1510.3 ± 10 m/s, the mass density ([1]; 288.15 K, m1 = 0.3) was 1024.7 ± 2 kg/m3 and the speed of sound ([1]; 293.15 K, m1 = 0.3) was 1518.6 ± 10 m/s. It also gave a mass density ([1]; 293.15 K, m1 = 0.3) of 1022.7 ± 2 kg/m3, a speed of sound ([1]; 298.15 K, m1 = 0.3) of 1529.1 ± 10 m/s and a speed of sound ([1]; 303.15 K, m1 = 0.3) of 1540 ± 10 m/s. It also gave a mass density ([1]; 303.15 K, m1 = 0.3) of 1019.2 ± 2 kg/m3, a speed of sound ([1]; 308.15 K, m1 = 0.3) of 1551.9 ± 10 m/s and a speed of sound ([1]; 313.15 K, m1 = 0.3) of 1563 ± 10 m/s. The mass density ([1]; 313.15 K, m1 = 0.3) was 1014.9 ± 2 kg/m3, the speed of sound ([1]; 318.15 K, m1 = 0.3) was 1573.4 ± 10 m/s and the mass density ([1]; 318.15 K, m1 = 0.3) was 1012.6 ± 2 kg/m3.
For O [water], the speed of sound ([2]; 298.15 K) was 1496.5 ± 10 m/s, the speed of sound ([2]; 308.15 K) was 1519.4 ± 10 m/s and the speed of sound ([2]; 313.15 K) was 1528.9 ± 10 m/s.
With O [water] + C[N+](C)(C)CC(=O)[O-] the speed of sound ([1]; 298.15 K, m2 = 0) was 1496.5 ± 10 m/s, the speed of sound ([1]; 308.15 K, m2 = 0) was 1519.4 ± 10 m/s and the speed of sound ([1]; 313.15 K, m2 = 0) was 1528.9 ± 10 m/s.
